The text below walks through data of US20160114000A1 (Merck Sharp & Dohme, published 2016).

In test [1] the test system is diet-induced obese (DIO) mice (strain C57Bl6/NTac). Nature of the test: Cumulative body weight change (grams) in DIO mice, Example 18. The conditions noted are these: 9 nmol/kg daily, day 9. Format: in vivo. On the procedure:
Mice were administered a vehicle control or a dose of a peptide daily for nine days. […] The peptide of SEQ ID NO: 9 was administered at doses of 9 and 25 nmol/kg. Cumulative body weight change (grams) was measured each day of the study except on day 3. Results are shown in FIG. 1 and are expressed as mean±SEM.

Test [2] relates to DIO mice (strain C57Bl6/NTac). The test is described as follows: Body weight change (%) relative to vehicle in DIO mice, second study, Example 19. The conditions noted are these: 3 nmol/kg daily, eight days. It counts as in vivo. As to the method: In addition, the peptide of SEQ ID NO: 8 was administered at 15 nmol/kg, while the peptide of SEQ ID NOs: 10 and 11 were administered at 3 nmol/kg. Body weight was measured daily for eight days and body weight change is expressed as percent relative to vehicle (FIG. 2).

The subject of test [3] is DIO mice (strain C57Bl6/NTac). Nature of the test: Cumulative food intake in DIO mice, Example 20. Format: in vivo. The conditions noted are these: 3 nmol/kg, after 8 days of dosing, vs vehicle.
Source text: For the studies in Examples 18, 19, 20, and 21, diet induced obesity (DIO) mice (strain C57Bl6/NTac; 20 weeks on a high fat diet, about 47 g) were divided into groups of eight mice per group and the initial average body weight, food intake and basal glucose of each group were matched before peptide administration. Each group of mice was subcutaneously injected daily with a dose of Co-agonist Peptide or vehicle control for 7 to 10 days. The peptides tested in this study were Co-agonist Peptides 1, 2, 3, 4, 5, and 6 (SEQ ID NOs: 6, 7, 8, 9, 10, and 11, respectively) at the doses that varied from 3 nmol/kg to 25 nmol/kg. Body weight, food intake and basal glucose were measured periodically during treatment.
The target of the next test is T1, human GCGR (Homo sapiens, UniProt P47871).
T1 construct: expressed in transfected cells; grown under Geneticin and Hygromycin selection
Nature of the test: cAMP protocol, cells expressing human GCGR. Format: cell-based. The conditions noted are these: ratio of EC50 at human GCGR to EC50 at human GLP1R.

T1 sequence (P47871 26-477): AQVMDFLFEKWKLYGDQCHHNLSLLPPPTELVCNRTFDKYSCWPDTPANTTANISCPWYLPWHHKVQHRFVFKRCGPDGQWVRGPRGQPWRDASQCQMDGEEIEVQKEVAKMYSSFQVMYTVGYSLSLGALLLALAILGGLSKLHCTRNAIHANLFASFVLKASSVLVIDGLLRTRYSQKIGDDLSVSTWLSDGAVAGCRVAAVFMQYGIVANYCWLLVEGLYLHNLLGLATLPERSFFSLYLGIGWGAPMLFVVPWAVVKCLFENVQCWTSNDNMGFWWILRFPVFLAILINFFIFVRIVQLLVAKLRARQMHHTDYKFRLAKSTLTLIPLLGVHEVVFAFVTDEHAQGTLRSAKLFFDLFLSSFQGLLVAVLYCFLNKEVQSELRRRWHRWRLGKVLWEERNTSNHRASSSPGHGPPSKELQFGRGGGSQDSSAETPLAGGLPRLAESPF
Procedure for human GCGR: The cAMP protocol was as follows.
Peptides were dissolved in 100% DMSO and serially diluted to generate 11 point titrations. The peptide solutions were then transferred into 384-well assay plates (150 nL/well). Assay ready frozen cells expressing human GLP-1R or human GCGR were suspended in growth media consisting of DMEM/F12 medium (GIBCO), 10% FBS (GIBCO), lx P/S (GIBCO), 800 μg/mL Geneticin (GIBCO), and 300 μg/mL Hygromycin (Invitrogen). Cells were then diluted in assay buffer consisting of PBS (GIBCO), 7.5% BSA (Perkin Elmer), 100 μM RO 20-1724 (Sigma), and 20% human serum (MP Biomedical). The cell suspensions (15 μL) were then added to the assay plates containing the peptide solutions (30,000 cells/well for human GCGR; 20,000 cells/well for GLP1R). The cells were incubated for 1 hour at room temperature in the dark. Production of cAMP was determined using HitHunter™ cAMPXS kits (DiscoverX). ED buffer (20 μL) was then added to each well and the plates were incubated for 1 hour at room temperature in the dark. Subsequently, EA buffer (20 μL) was added to each well, and the plates were incubated for 1-18 hours at room temperature in the dark. Luminescence was measured using an EnVision Multilabel plate reader (Perkin Elmer). EC50 values were calculated using ADA data analyzer software.

For `CCCCCCCCCCCCCCCC(=O)N[C@@H](CCC(=O)N[C@@H](CCC(=O)NCCCC[C@H](NC(=O)[C@H](CC(=O)O)NC(=O)[C@H](CO)NC(=O)[C@@H](NC(=O)[C@H](Cc1ccccc1)NC(=O)[C@@H](NC(=O)CNC(=O)[C@H](CCC(N)=O)NC(=O)[C@@H](CO)NC(=O)[C@@H](N)Cc1c[nH]cn1)[C@@H](C)O)[C@@H](C)O)C(=O)N[C@@H](CO)C(=O)N[C@@H](CCCCN)C(=O)N[C@@H](Cc1ccc(O)cc1)C(=O)N[C@@H](CC(C)C)C(=O)N[C@@H](CC(=O)O)C(=O)N[C@@H](C)C(=O)N[C@@H](CCCNC(=N)N)C(=O)N[C@@H](C)C(=O)N[C@@H](C)C(=O)N[C@@H](CCC(N)=O)C(=O)N[C@@H](CC(=O)O)C(=O)N[C@@H](Cc1ccccc1)C(=O)N[C@H](C(=O)N[C@@H](CCC(N)=O)C(=O)N[C@@H](Cc1c[nH]c2ccccc12)C(=O)N[C@@H](CC(C)C)C(=O)N[C@@H](CC(C)C)C(=O)N[C@@H](CC(=O)O)C(=O)N[C@H](C(N)=O)[C@@H](C)O)C(C)C)C(=O)O)C(=O)O` [SEQ ID NO: 10], the weight loss entry in test [1] is “approximately 13 grams”. Moreover, in test [2], the “weight loss, percent relative to vehicle” value is given as “approximately 17%”. Further, the food intake entry in test [3] is listed as “significant suppression of food intake”. In addition, the “hGCGR/hGLP1R (hTone)” value at human GCGR stood at 0.90.
On the same counts, the results for `CCCCCCCCCCCCCCCC(=O)N[C@@H](CCC(=O)N[C@@H](CCC(=O)NCCCC[C@H](NC(=O)[C@H](CC(=O)O)NC(=O)[C@H](CO)NC(=O)[C@@H](NC(=O)[C@H](Cc1ccccc1)NC(=O)[C@@H](NC(=O)CNC(=O)[C@H](CCC(N)=O)NC(=O)[C@@H](CO)NC(=O)[C@@H](N)Cc1c[nH]cn1)[C@@H](C)O)[C@@H](C)O)C(=O)N[C@@H](CO)C(=O)N[C@@H](CCCCN)C(=O)N[C@@H](Cc1ccc(O)cc1)C(=O)N[C@@H](CC(C)C)C(=O)N[C@@H](CC(=O)O)C(=O)N[C@@H](CCC(=O)O)C(=O)N[C@@H](CCCNC(=N)N)C(=O)N[C@@H](C)C(=O)N[C@@H](C)C(=O)N[C@@H](CCC(N)=O)C(=O)N[C@@H](CC(=O)O)C(=O)N[C@@H](Cc1ccccc1)C(=O)N[C@H](C(=O)N[C@@H](CCC(N)=O)C(=O)N[C@@H](Cc1c[nH]c2ccccc12)C(=O)N[C@@H](CC(C)C)C(=O)N[C@@H](CC(C)C)C(=O)N[C@@H](CC(=O)O)C(=O)N[C@H](C(N)=O)[C@@H](C)O)C(C)C)C(=O)O)C(=O)O` [SEQ ID NO: 11, reference compound] are “approximately 13 grams”, “no weight loss efficacy”, “no change in food intake” and 1.30.
